Columns and labels:
Experiment in all cases: relative viability (nuclei count vs DMSO), 5 days (fraction); higher = more cells survive
Pictilisib + Palbociclib = compound: CS(=O)(=O)N1CCN(Cc2cc3nc(-c4cccc5[nH]ncc45)nc(N4CCOCC4)c3s2)CC1 [Pictilisib] + CC(=O)c1c(C)c2cnc(Nc3ccc(N4CCNCC4)cn3)nc2n(C2CCCC2)c1=O [Palbociclib] (partner 0.5 µM)
In short: (§1)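 Medians of duplicate plates are given as relative viability. That measure is the nuclei count in treated wells divided by the count in vehicle wells. Counts were taken on 4× images of lung cancer cell lines in 1536-well plates, 5 days after pin-tool dosing the day after seeding with one drug alone or a fixed anchor-drug dose plus five library-drug doses (not always all listed) in √10 steps.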

MK-2206 + Olaparib = compound: NC1(c2ccc(-c3nc4ccn5c(=O)[nH]nc5c4cc3-c3ccccc3)cc2)CCC1 [MK-2206] + O=C(c1cc(Cc2n[nH]c(=O)c3ccccc23)ccc1F)N1CCN(C(=O)C2CC2)CC1 [Olaparib] (partner 8 µM)
In short: as §1

MK-2206 + Pictilisib = compound: NC1(c2ccc(-c3nc4ccn5c(=O)[nH]nc5c4cc3-c3ccccc3)cc2)CCC1 [MK-2206] + CS(=O)(=O)N1CCN(Cc2cc3nc(-c4cccc5[nH]ncc45)nc(N4CCOCC4)c3s2)CC1 [Pictilisib] (partner 1 µM)
In short: as §1

Pictilisib + Navitoclax = compound: CS(=O)(=O)N1CCN(Cc2cc3nc(-c4cccc5[nH]ncc45)nc(N4CCOCC4)c3s2)CC1 [Pictilisib] + CC1(C)CCC(c2ccc(Cl)cc2)=C(CN2CCN(c3ccc(C(=O)NS(=O)(=O)c4ccc(N[C@H](CCN5CCOCC5)CSc5ccccc5)c(S(=O)(=O)C(F)(F)F)c4)cc3)CC2)C1 [Navitoclax] (partner 0.5 µM)
In short: as §1

MK-2206 + Phenformin = compound: NC1(c2ccc(-c3nc4ccn5c(=O)[nH]nc5c4cc3-c3ccccc3)cc2)CCC1 [MK-2206] + N=C(N)NC(=N)NCCc1ccccc1 [Phenformin] (partner 250 µM)
In short: as §1

UMC-11
relative viability (Pictilisib + Palbociclib; first compound 0.02 µM): 0.334
relative viability (Pictilisib + Palbociclib; first compound 0.06325 µM): 0.318
relative viability (Pictilisib + Palbociclib; first compound 0.6325 µM): 0.427
relative viability (Pictilisib + Palbociclib; first compound 2 µM): 0.376
relative viability (MK-2206 + Olaparib; first compound 0.01 µM): 0.52
relative viability (MK-2206 + Olaparib; first compound 0.03162 µM): 1.16
relative viability (MK-2206 + Olaparib; first compound 0.3162 µM): 0.381
relative viability (MK-2206 + Olaparib; first compound 1 µM): 0.363
relative viability (MK-2206 + Pictilisib; first compound 0.01 µM): 0.762
relative viability (MK-2206 + Pictilisib; first compound 0.03162 µM): 0.821
relative viability (MK-2206 + Pictilisib; first compound 0.3162 µM): 0.837
relative viability (MK-2206 + Pictilisib; first compound 1 µM): 0.616
relative viability (Pictilisib + Navitoclax; first compound 0.02 µM): 0.343
relative viability (Pictilisib + Navitoclax; first compound 0.06325 µM): 0.281
relative viability (Pictilisib + Navitoclax; first compound 0.6325 µM): 0.349
relative viability (Pictilisib + Navitoclax; first compound 2 µM): 0.281
relative viability (MK-2206 + Phenformin; first compound 0.01 µM): 0.351
relative viability (MK-2206 + Phenformin; first compound 0.03162 µM): 0.312
relative viability (MK-2206 + Phenformin; first compound 0.3162 µM): 0.33
relative viability (MK-2206 + Phenformin; first compound 1 µM): 0.316
